According to publication PMC12406203 (Journal of Medicinal Chemistry, 2025):
Where “and” joins values, the source holds several entries; their conditions need not be identical. Equal values may be shown once.

Tests used:
[1] = system: TYK2(JH1domain-catalytic)
[2] = system: mice (locomotor activity); assay: Locomotor activity test; details: 10 mg/kg i.p.
Excerpt: The mice had unlimited access to food and water prior to the experiment. Specified conditions for the maintenance of mice were ensured throughout the experiment, including tree bedding (Transwior, Poland) and cage enrichment (tunnels, nesting material, wooden igloos, etc.). For behavioral tests, the mice were selected randomly; each group consisted of 7–10 mice. […] After in vivo tests, the animals were immediately euthanized, and their tissues were collected and stored for further ex vivo testing.
They were administered intraperitoneally (i.p.) 60 min before the acquisition trial of the PA, NOR, and MWM tasks.
The locomotor activity test was performed using activity cages (40 cm × 40 cm × 30 cm, supplied with IR beam emitters) (Activity Cage 7441, Ugo Basile, Italy) connected to a counter for the recording of light-beam interrupts. […] The animals’ movements (i.e., the number of light-beam crossings) were counted during the next 60 min of the test. Before the experiment, the mice were habituated to activity cages for 15 min.

[3] = system: scopolamine-induced cognitive deficits in mice; assay: Passive avoidance task, scopolamine-induced amnesia; assay type: in vivo; details: for efficacy in PA task: 5 mg/kg i.p., scopolamine model; for step-through latency, retention trial (PA task): 10 mg/kg i.p., vs scopolamine-treated control mice
Excerpt: In the scopolamine model, the PA and NOR tasks were used for dose selection for further testing.
The mice had unlimited access to food and water prior to the experiment. Specified conditions for the maintenance of mice were ensured throughout the experiment, including tree bedding (Transwior, Poland) and cage enrichment (tunnels, nesting material, wooden igloos, etc.). For behavioral tests, the mice were selected randomly; each group consisted of 7–10 mice.
Scopolamine hydrobromide (Sigma-Aldrich, Poland) at the dose of 1 mg/kg was used to induce learning and memory deficits. For the in vivo tests, scopolamine was prepared in distilled water (Polfa Kutno, Poland) and was administered subcutaneously (s.c.) 30 min before behavioral tests during the acquisition (training) trial of PA and NOR tasks. […] They were administered intraperitoneally (i.p.) 60 min before the acquisition trial of the PA, NOR, and MWM tasks.
The PA apparatus (Panlab Harvard Apparatus, Spain) consists of a large white-colored illuminated compartment (26 cm × 26 cm × 34 cm) and a small black-colored compartment (13 cm × 7.5 cm × 7.5 cm), which are separated from each other by a guillotine gate (5 cm × 5 cm). The PA task is divided into two trials (i.e., the acquisition trial and the retention trial), each conducted 24 h apart. On the first day, during the acquisition trial (a conditioning phase), the test compounds (94 and 95, neflamapimod and vehicle) were injected. Also, before the acquisition trial, scopolamine or LPS was administered at selected time points. Then, each mouse was placed into the white compartment, and a 30 s habituation period began (guillotine gate is closed). After that, the guillotine gate was opened, and the mice were tested during the 180 s testing period. As soon as the mouse entered the black compartment of the PA device, the guillotine gate was closed and an electrical shock (intensity: 0.2 mA, duration: 2 s) was automatically applied through the grid floor. For each mouse, the latency between the opening of the guillotine gate and the mouse’s entering the black compartment was measured. On the next day, during the retention (drug-off) trial, the mice were placed again into the white compartment for a 30 s habituation period, and the latency to enter the black compartment was measured for each mouse.

BV2 cells = assay: MTS metabolic activity (cytotoxicity); assay type: cell-based, murine; details: BV2, MTS assay, 24 h, concentrations of 5 μM or less
Procedure: The human hepatocellular carcinoma HepG2 and human neuroblastoma SH-SY5Y cell lines were purchased from American Type Culture Collection (Manassas, VA, USA). The murine microglia BV2 cells were a generous gift from Dr. Biljana Božić Nedeljković (University of Belgrade, Belgrade, Serbia). Cells were cultured in Advanced Dulbecco’s modified Eagle’s medium (Gibco, Thermo Fisher Scientific, Waltham, MA, USA) supplemented with 10% fetal bovine serum (FBS, Gibco), 2 mM L-glutamine, 50 U/mL penicillin and 50 μg/mL streptomycin (Sigma, St. Louis, MO, USA) in a humidified atmosphere of 95% air and 5% CO2 at 37 °C, and grown to 80% confluence. Prior to cell treatment, complete medium was replaced with serum-free medium. […]
BV2 cells (5 × 10^3/well) and HepG2 and SH-SY5Y cells (1 × 10^4/well) were seeded in 96-well plates and assessed by MTS ([3-(4,5-dimethylthiazol-2-yl)-5-(3-carboxymethoxyphenyl)-2-(4-sulfophenyl)-2H tetrazolium, inner salt) assay for their response to compounds 94 and 95. Cells were treated with increasing concentrations of compounds (1–100 μM) in serum-free medium, and metabolic activity was assessed after 24 h using the CellTiter 96 Aqueous One Solution Cell Proliferation Assay (Promega, Madison, WI, USA), in accordance with the manufacturer’s instructions. Absorbance was measured with an automatic microplate reader (Tecan Safire^2, Switzerland) at a wavelength of 492 nm. […]

panel of 103 kinases = assay: KINOMEscan kinase selectivity profiling (whole panel); assay type: binding; details: 10 and 1 μM
Procedure: The kinase inhibition profile of compounds 94 and 95 was assessed against 103 protein kinases by Eurofins DiscoverX, LLC., using the KINOMEscan assay. Kinase-tagged T7 phage strains were grown in parallel in 24-well blocks in an E. coli host derived from the BL21 strain. E. coli were grown to log-phase and infected with T7 phage from a frozen stock (multiplicity of infection = 0.4) and incubated with shaking at 32 °C until lysis (90–150 min). The lysates were centrifuged (6000g) and filtered (0.2 μm) to remove cell debris. The remaining kinases were produced in HEK-293 cells and subsequently tagged with DNA for qPCR detection. […] The liganded beads were blocked with excess biotin and washed with blocking buffer (SeaBlock (Pierce), 1% BSA, 0.05% Tween 20, 1 mM DTT) to remove unbound ligand and to reduce nonspecific phage binding. […] Test compounds were prepared as 100× stocks in 100% DMSO and directly diluted into the assay. All reactions were performed in polypropylene 384-well plates in a final volume of 0.02 mL. […] The kinase concentration in the eluates was measured by qPCR.
The compound(s) were screened at the concentration(s) requested, and results for primary screen binding interactions are reported as RA (%), where lower numbers indicate stronger hits in the matrix. RA=(testcompoundsignal−PCsignal/NCsignal−PCsignal)×100
Test compound = Cpd. […]

CC(C)Cn1ncc2cc(Cc3ccc(F)cc3F)c(C(=O)NCCN(C)C)cc21 [Compound 94, 5-(2,4-Difluorobenzyl)-N-(2-(dimethylamino)ethyl)-1-isobutyl-1H-indazole-6-carboxamide]
RA @ 1000nM (PDGFRA): 96%
RA @ 10000nM (PDGFRA): 76%
RA @ 1000nM (ABL1-phosphorylated): 79%
RA @ 10000nM (ABL1-phosphorylated): 53%
RA @ 1000nM [1]: 78%
RA @ 10000nM [1]: 79%
motor adverse effects (locomotor activity test) [2]: no motor adverse effects
RA @ 1000nM (RIOK2): 85%
RA @ 10000nM (RIOK2): 92%
RA @ 1000nM (JNK1): 77%
RA @ 10000nM (JNK1): 41%
RA @ 1000nM (PIM3): 100%
RA @ 10000nM (PIM3): 100%
RA @ 1000nM (GSK3B): 91%
RA @ 10000nM (GSK3B): 97%
RA @ 1000nM (IKKβ): 89%
RA @ 10000nM (IKKβ): 89%
RA @ 1000nM (MEK2): 86%
RA @ 10000nM (MEK2): 80%
RA @ 1000nM (FLT3): 100%
RA @ 10000nM (FLT3): 90%
RA @ 1000nM (DYRK1B): 100%
RA @ 10000nM (DYRK1B): 85%
RA @ 1000nM (TRKA): 98%
RA @ 10000nM (TRKA): 94%
IC50 (hBChE): 652 nM and 270 ng/mL
RA at 100 µM (hAChE): 69 ± 4%
RA @ 1000nM (CDK7): 79%
RA @ 10000nM (CDK7): 86%
RA @ 1000nM (PLK1): 100%
RA @ 10000nM (PLK1): 100%
RA @ 1000nM (YANK3): 100%
RA @ 10000nM (YANK3): 100%
RA @ 1000nM (AXL): 97%
RA @ 10000nM (AXL): 89%
RA @ 1000nM (BMPR2): 86%
RA @ 10000nM (BMPR2): 95%
efficacy in PA task [3]: not statistically significantly effective
step-through latency, retention trial (PA task) [3]: statistically significant prolonged step-through latency
RA @ 1000nM (ERBB2): 74%
RA @ 10000nM (ERBB2): 81%
RA @ 1000nM (NLK): 100%
RA @ 10000nM (NLK): 98%
RA @ 1000nM (ALK): 93%
RA @ 10000nM (ALK): 83%
cell viability (BV2 cells): did not affect cell viability
kinase selectivity (panel of 103 kinases): high selectivity for p38α MAPK
RA @ 1000nM (VEGFR2): 100%
RA @ 10000nM (VEGFR2): 100%

CN(C)CCNC(=O)c1cc2c(cnn2CC2CCCCC2)cc1Cc1ccc(F)cc1F [Compound 95, 1-(Cyclohexylmethyl)-5-(2,4-difluorobenzyl)-N-(2-(dimethylamino)ethyl)-1H-indazole-6-carboxamide]
RA @ 1000nM (PDGFRA): 92%
RA @ 10000nM (PDGFRA): 92%
RA @ 1000nM (ABL1-phosphorylated): 81%
RA @ 10000nM (ABL1-phosphorylated): 85%
RA @ 1000nM [1]: 89%
RA @ 10000nM [1]: 75%
motor adverse effects (locomotor activity test) [2]: no motor adverse effects
RA @ 1000nM (RIOK2): 88%
RA @ 10000nM (RIOK2): 81%
RA @ 1000nM (JNK1): 100%
RA @ 10000nM (JNK1): 27%
RA @ 1000nM (PIM3): 100%
RA @ 10000nM (PIM3): 100%
RA @ 1000nM (GSK3B): 100%
RA @ 10000nM (GSK3B): 80%
RA @ 1000nM (IKKβ): 93%
RA @ 10000nM (IKKβ): 80%
RA @ 1000nM (MEK2): 95%
RA @ 10000nM (MEK2): 100%
RA @ 1000nM (FLT3): 100%
RA @ 10000nM (FLT3): 100%
RA @ 1000nM (DYRK1B): 95%
RA @ 10000nM (DYRK1B): 100%
RA @ 1000nM (TRKA): 100%
RA @ 10000nM (TRKA): 92%
IC50 (hBChE): 772 nM and 350 ng/mL
RA at 100 µM (hAChE): 53 ± 1%
RA @ 1000nM (CDK7): 88%
RA @ 10000nM (CDK7): 77%
RA @ 1000nM (PLK1): 100%
RA @ 10000nM (PLK1): 100%
RA @ 1000nM (YANK3): 100%
RA @ 10000nM (YANK3): 100%
RA @ 1000nM (AXL): 84%
RA @ 10000nM (AXL): 83%
RA @ 1000nM (BMPR2): 89%
RA @ 10000nM (BMPR2): 92%
efficacy in PA task [3]: not statistically significantly effective
step-through latency, retention trial (PA task) [3]: statistically significant prolonged step-through latency
RA @ 1000nM (ERBB2): 84%
RA @ 10000nM (ERBB2): 78%
RA @ 1000nM (NLK): 100%
RA @ 10000nM (NLK): 100%
RA @ 1000nM (ALK): 62%
RA @ 10000nM (ALK): 92%
cell viability (BV2 cells): did not affect cell viability
kinase selectivity (panel of 103 kinases): high selectivity for p38α MAPK
RA @ 1000nM (VEGFR2): 100%
RA @ 10000nM (VEGFR2): 100%
